Tested on: HepG2 cells
Assay: In vitro De Novo Lipogenesis (DNL) assay, 13C-acetate incorporation into palmitic acid
Assay type: cell-based
Settings: 1 hour preincubation, 24 hours with 10 mM 13C-labeled acetate
Method: De Novo Lipogenesis (DNL) was measured in vitro in HepG2 cells by quantifying the incorporation of ^13C-labeled acetate into palmitic acid.
HepG2 cells were plated in growth medium (DMEM (Corning cat #15-018-CM) supplemented with 10% FBS (HyClone cat #SH30071-03), and 1× penicillin, streptomycin, glutamine (Corning cat #30-009-CI)) at 10,000 cells/well in a 384-well cell culture-treated plate (Greiner cat #781091). The cells were then incubated overnight at 37° C., 5% CO2. The next day, the cells were washed twice with sterile DPBS (Corning cat #21-031-CM) and the culture medium was changed to fresh growth medium. The compounds of interest were dosed to cells, followed by a 1 hour incubation at 37° C., 5% CO2. ^13C-labeled acetate (Sigma-Aldrich cat #279315-1G) was added to the culture medium at a concentration of 10 mM and the cells were incubated for 24 hours at 37° C., 5% CO2.
In order to analyze the lipid content of the HepG2 cells, the culture medium was removed and the cells were lysed by adding 30 μL of 0.1 M NaOH. After 5 minutes of incubation at room temperature, 15 μL of cell lysate was transferred to a 384-well deep-well plate (Sigma-Aldrich cat #BR701355-48EA) containing 15 μL of 7.3% KOH in ethanol and mixed. This plate was sealed and incubated at 70° C. for 4 hours to hydrolyze the lipids to free fatty acids. 100 μL of acetonitrile was then added and the plate was spun at 3,700 g for 20 minutes to separate the organic and aqueous phases. 50 μL from the top (organic) phase was transferred to a new 384-well plate (NUNC cat #264573) and the samples were analyzed by mass spectrometry using a RapidFire coupled to a QTOF mass spectrometer. The sum of the area under curve (AUC) for palmitate containing 3 to 7 ^13C was normalized with the AUC of oleate and plotted against compound concentration to determine the potency of ACC inhibitors. […]

Compound	EC50 (Homo sapiens)	EC50
COCCOc1ccccc1[C@H](Cn1c(=O)n(C(C)(C)C(=O)NS(=O)(=O)C2(C)CC2)c(=O)c2c(C)c(-n3nccn3)sc21)O[C@@H]1C[C@H]2CC[C@@H](C1)O2 [Example 24, 2-(1-((R)-2-(((1R,3s,5S)-8-oxabicyclo[3.2.1]octan-3-yl)oxy)-2-(2-(2-methoxyethoxy)phenyl)ethyl)-5-methyl-2,4-dioxo-6-(2H-1,2,3-triazol-2-yl)-1,4-dihydrothieno[2,3-d]pyrimidin-3(2H)-yl)-2-methyl-N-((1-methylcyclopropyl)sulfonyl)propanamide]	24.3 nM	
COCCOc1ccccc1[C@H](Cn1c(=O)n(C2(C(=O)NS(=O)(=O)C3(C)CC3)CC2)c(=O)c2c(C)c(-n3nccn3)sc21)O[C@@H]1C[C@H]2CC[C@@H](C1)O2 [Example 30, 1-(1-((R)-2-(((1R,3s,5S)-8-oxabicyclo[3.2.1]octan-3-yl)oxy)-2-(2-(2-methoxyethoxy)phenyl)ethyl)-5-methyl-2,4-dioxo-6-(2H-1,2,3-triazol-2-yl)-1,4-dihydrothieno[2,3-d]pyrimidin-3(2H)-yl)-N-((1-methylcyclopropyl)sulfonyl)cyclopropane-1-carboxamide]	33.1 nM	
2-(1-((R)-2-(((1R,3s,5S)-8-oxabicyclo[3.2.1]octan-3-yl)oxy)-2-(2-methoxyphenyl)ethyl)-5-methyl-6-(oxazol-2-yl)-2,4-dioxo-1,4-dihydrothieno[2,3-d]pyrimidin-3 (2H)-yl)-N-(tert-butylsulfonyl)-2-methylpropanamide [Example 3]		1.5 nM
COc1ccccc1[C@H](Cn1c(=O)n([C@@H](C)C(=O)NS(=O)(=O)C(C)(C)C)c(=O)c2c(C)c(-c3ncco3)sc21)O[C@@H]1C[C@H]2CC[C@@H](C1)O2 [Example 17, (S)-2-(1-((R)-2-(((1R,3s,5S)-8-oxabicyclo[3.2.1]octan-3-yl)oxy)-2-(2-methoxyphenyl)ethyl)-5-methyl-6-(oxazol-2-yl)-2,4-dioxo-1,4-dihydrothieno[2,3-d]pyrimidin-3(2H)-yl)-N-(tert-butylsulfonyl)propanamide]	41.1 nM	
COc1ccccc1[C@H](Cn1c(=O)n(C(C)(C)C(=O)NS(=O)(=O)C2CC2)c(=O)c2c(C)c(-c3ncco3)sc21)O[C@@H]1C[C@H]2CC[C@@H](C1)O2 [Example 4, 2-(1-((R)-2-(((1R,3s,5S)-8-oxabicyclo[3.2.1]octan-3-yl)oxy)-2-(2-methoxyphenyl)ethyl)-5-methyl-6-(oxazol-2-yl)-2,4-dioxo-1,4-dihydrothieno[2,3-d]pyrimidin-3 (2H)-yl)-N-(cyclopropylsulfonyl)-2-methylpropanamide]		1.7 nM
Cc1c(-c2ncco2)sc2c1c(=O)n(C(C)(C)C(=O)NS(=O)(=O)c1ccccn1)c(=O)n2C[C@H](O[C@@H]1C[C@H]2CC[C@@H](C1)O2)c1cc(F)ccc1OC(F)F [Example 9, 2-(1-((R)-2-(((1R,3s,5S)-8-oxabicyclo[3.2.1]octan-3-yl)oxy)-2-(2-(difluoromethoxy)-5-fluorophenyl)ethyl)-5-methyl-6-(oxazol-2-yl)-2,4-dioxo-1,4-dihydrothieno[2,3-d]pyrimidin-3(2H)-yl)-2-methyl-N-(pyridin-2-ylsulfonyl)propanamide]	215 nM	
Cc1c(-c2ncco2)sc2c1c(=O)n(C1(C(=O)NS(=O)(=O)C3(C)CC3)CC1)c(=O)n2C[C@H](O[C@@H]1C[C@H]2CC[C@@H](C1)O2)c1cc(F)ccc1OC(F)F [Example 10, 1-(1-((R)-2-(((1R,3s,5S)-8-oxabicyclo[3.2.1]octan-3-yl)oxy)-2-(2-(difluoromethoxy)-5-fluorophenyl)ethyl)-5-methyl-6-(oxazol-2-yl)-2,4-dioxo-1,4-dihydrothieno[2,3-d]pyrimidin-3(2H)-yl)-N-((1-methylcyclopropyl)sulfonyl)cyclopropane-1-carboxamide]	48.3 nM	
Cc1c(-n2nccn2)sc2c1c(=O)n(C1(C(=O)NS(=O)(=O)C(C)(C)C)CC1)c(=O)n2C[C@H](O[C@@H]1C[C@H]2CC[C@@H](C1)O2)c1ccccc1OC(F)F [Example 27, 1-(1-((R)-2-(((1R,3s,5S)-8-oxabicyclo[3.2.1]octan-3-yl)oxy)-2-(2-(difluoromethoxy)phenyl)ethyl)-5-methyl-2,4-dioxo-6-(2H-1,2,3-triazol-2-yl)-1,4-dihydrothieno[2,3-d]pyrimidin-3(2H)-yl)-N-(tert-butylsulfonyl)cyclopropane-1-carboxamide]	363 nM	
Cc1c(-n2nccn2)sc2c1c(=O)n(C(C)(C)C(=O)NS(=O)(=O)C1(C)CC1)c(=O)n2C[C@H](O[C@H]1C[C@H]2CC[C@@H](C1)O2)c1ccccc1OC(F)F [Example 21, 2-(1-((R)-2-(((1R,3r,5S)-8-oxabicyclo[3.2.1]octan-3-yl)oxy)-2-(2-(difluoromethoxy)phenyl)ethyl)-5-methyl-2,4-dioxo-6-(2H-1,2,3-triazol-2-yl)-1,4-dihydrothieno[2,3-d]pyrimidin-3(2H)-yl)-2-methyl-N-((1-methylcyclopropyl)sulfonyl)propanamide]	29.7 nM	

Further lines, results first:

EC50 (Homo sapiens)	EC50	Compound
1 nM		COc1ccccc1[C@H](Cn1c(=O)n(C2(C(=O)NS(=O)(=O)C3(C)CC3)CC2)c(=O)c2c(C)c(-n3nccn3)sc21)O[C@@H]1C[C@H]2CC[C@@H](C1)O2 [Example 25, 1-(1-((R)-2-(((1R,3s,5S)-8-oxabicyclo[3.2.1]octan-3-yl)oxy)-2-(2-methoxyphenyl)ethyl)-5-methyl-2,4-dioxo-6-(2H-1,2,3-triazol-2-yl)-1,4-dihydrothieno[2,3-d]pyrimidin-3(2H)-yl)-N-((1-methylcyclopropyl)sulfonyl)cyclopropane-1-carboxamide]
1 nM		COc1ccccc1[C@H](Cn1c(=O)n(C(C)(C)C(=O)NS(=O)(=O)C2(C)CC2)c(=O)c2c(C)c(-n3nccn3)sc21)O[C@@H]1C[C@H]2CC[C@@H](C1)O2 [Example 19, 2-(1-((R)-2-(((1R,3s,5S)-8-oxabicyclo[3.2.1]octan-3-yl)oxy)-2-(2-methoxyphenyl)ethyl)-5-methyl-2,4-dioxo-6-(2H-1,2,3-triazol-2-yl)-1,4-dihydrothieno[2,3-d]pyrimidin-3(2H)-yl)-2-methyl-N-((1-methylcyclopropyl)sulfonyl)propanamide]
7 nM		Cc1c(-c2ncco2)sc2c1c(=O)n(C(C)(C)C(=O)NS(=O)(=O)C(C)(C)C)c(=O)n2C[C@H](O[C@@H]1C[C@H]2CC[C@@H](C1)O2)c1cc(F)ccc1OC(F)F [Example 8, 2-(1-((R)-2-(((1R,3s,5S)-8-oxabicyclo[3.2.1]octan-3-yl)oxy)-2-(2-(difluoromethoxy)-5-fluorophenyl)ethyl)-5-methyl-6-(oxazol-2-yl)-2,4-dioxo-1,4-dihydrothieno[2,3-d]pyrimidin-3(2H)-yl)-N-(tert-butylsulfonyl)-2-methylpropanamide]
0.9 nM		Cc1c(-n2nccn2)sc2c1c(=O)n(C1(C(=O)NS(=O)(=O)C3(C)CC3)CC1)c(=O)n2C[C@H](O[C@@H]1C[C@H]2CC[C@@H](C1)O2)c1cc(F)ccc1OC(F)F [Example 28, 1-(1-((R)-2-(((1R,3s,5S)-8-oxabicyclo[3.2.1]octan-3-yl)oxy)-2-(2-(difluoromethoxy)-5-fluorophenyl)ethyl)-5-methyl-2,4-dioxo-6-(2H-1,2,3-triazol-2-yl)-1,4-dihydrothieno[2,3-d]pyrimidin-3(2H)-yl)-N-((1-methylcyclopropyl)sulfonyl)cyclopropane-1-carboxamide]
7.6 nM		Cc1c(-c2ncco2)sc2c1c(=O)n(C(C)(C)C(=O)NS(=O)(=O)C1CC1)c(=O)n2C[C@H](O[C@@H]1C[C@H]2CC[C@@H](C1)O2)c1cc(F)ccc1OC(F)F [Example 7, 2-(1-((R)-2-(((1R,3s,5S)-8-oxabicyclo[3.2.1]octan-3-yl)oxy)-2-(2-(difluoromethoxy)-5-fluorophenyl)ethyl)-5-methyl-6-(oxazol-2-yl)-2,4-dioxo-1,4-dihydrothieno[2,3-d]pyrimidin-3(2H)-yl)-N-(cyclopropylsulfonyl)-2-methylpropanamide]
9.9 nM		COc1ccccc1[C@H](Cn1c(=O)n(C(C)(C)C(=O)NS(=O)(=O)C2(C)CC2)c(=O)c2c(C)c(C#N)sc21)O[C@@H]1C[C@H]2CC[C@@H](C1)O2 [Example 32, 2-(1-((R)-2-(((1R,3s,5S)-8-oxabicyclo[3.2.1]octan-3-yl)oxy)-2-(2-methoxyphenyl)ethyl)-6-cyano-5-methyl-2,4-dioxo-1,4-dihydrothieno[2,3-d]pyrimidin-3(2H)-yl)-2-methyl-N-((1-methylcyclopropyl)sulfonyl)propanamide]
1.9 nM		COc1ccccc1[C@H](Cn1c(=O)n([C@@H](C)C(=O)NS(=O)(=O)C2(C)CC2)c(=O)c2c(C)c(-c3ncco3)sc21)O[C@@H]1C[C@H]2CC[C@@H](C1)O2 [Example 16, (S)-2-(1-((R)-2-(((1R,3s,5S)-8-oxabicyclo[3.2.1]octan-3-yl)oxy)-2-(2-methoxyphenyl)ethyl)-5-methyl-6-(oxazol-2-yl)-2,4-dioxo-1,4-dihydrothieno[2,3-d]pyrimidin-3(2H)-yl)-N-((1-methylcyclopropyl)sulfonyl)propanamide]

— patent US11352371B2, “Thienopyrimidine derivatives as ACC inhibitors and uses thereof” (Gilead Sciences, Inc., priority 2019, dated 2022)
